Test results reported in patent US8436035B2, “Organic compounds” (Novartis AG, priority 2006, dated 2013).

Legend:
[1] = molecular target: T1, aldosterone synthase (CYP11B2) (Homo sapiens, UniProt P19099); test: in vitro aldosterone synthase inhibition, aldosterone production in Ang II-stimulated NCI-H295R cells; format: cell-based; settings: read-out: AS IC50
T1 construct: host or cells: NCI-H295R
T1 sequence (P19099 25-503): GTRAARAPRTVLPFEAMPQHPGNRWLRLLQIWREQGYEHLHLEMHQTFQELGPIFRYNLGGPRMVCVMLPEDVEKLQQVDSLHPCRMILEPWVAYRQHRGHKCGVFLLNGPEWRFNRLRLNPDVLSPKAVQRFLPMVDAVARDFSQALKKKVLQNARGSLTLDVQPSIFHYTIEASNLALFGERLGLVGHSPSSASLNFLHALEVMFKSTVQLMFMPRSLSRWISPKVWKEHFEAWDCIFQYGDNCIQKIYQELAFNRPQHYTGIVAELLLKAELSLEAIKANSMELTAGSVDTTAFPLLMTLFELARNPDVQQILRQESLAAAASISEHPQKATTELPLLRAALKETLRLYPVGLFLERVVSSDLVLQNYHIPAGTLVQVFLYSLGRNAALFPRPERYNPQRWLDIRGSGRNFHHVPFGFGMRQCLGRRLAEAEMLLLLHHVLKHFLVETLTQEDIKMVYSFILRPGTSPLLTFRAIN
Text: In particular, the aldosterone synthase inhibitory activities in vitro can be determined by the following assay.
Human adrenocortical carcinoma NCI-H295R cell line is obtained from American Type Culture Collection (Manassas, Va.). Insulin/transferrin/selenium (ITS)-A supplement (100×), DMEM/F-12, antibiotic/antimycotic (100×), and fetal calf serum (FCS) are purchased from Gibco (Grand Island, N.Y.). Anti-mouse PVT scintillation proximity assay (SPA) beads and NBS 96-well plates are obtained from Amersham (Piscataway, N.J.) and Corning (Acton, Mass.), respectively. Solid black 96-well flat bottom plates were purchased from Costar (Corning, N.Y.). Aldosterone and angiotensin (Ang II) are purchased from Sigma (St. Louis, Mo.). D-[1,2,6,7-^3H(N)]aldosterone was acquired from PerkinElmer (Boston, Mass.). Nu-serum was a product of BD Biosciences (Franklin Lakes, N.J.).
For in vitro measurement of aldosterone activity, human adrenocortical carcinoma NCI-H295R cells are seeded in NBS 96-well plates at a density of 25,000 cells/well in 100 μl of a growth medium containing DMEM/F12 supplemented with 10% FCS, 2.5% Nu-serum, 1 μg ITS/ml, and 1× antibiotic/antimycotic. The medium is changed after culturing for 3 days at 37° C. under an atmosphere of 5% CO2/95% air. On the following day, cells are rinsed with 100 μl of DMEM/F12 and incubated with 100 μl of treatment medium containing 1 μM Ang II and a compound at different concentrations in quadruplicate wells at 37° C. for 24 hr. At the end of incubation, 50 μl of medium is withdrawn from each well for measurement of aldosterone production by an RIA using mouse anti-aldosterone monoclonal antibodies.
Measurement of aldosterone activity can also be performed using a 96-well plate format. Each test sample is incubated with 0.02 μCi of D-[1,2,6,7-^3H(N)]aldosterone and 0.3 μg of anti-aldosterone antibody in phosphate-buffered saline (PBS) containing 0.1% Triton X-100, 0.1% bovine serum albumin, and 12% glycerol in a total volume of 200 μl at room temperature for 1 hr. Anti-mouse PVT SPA beads (50 μl) are then added to each well and incubated overnight at room temperature prior to counting in a Microbeta plate counter. The amount of aldosterone in each sample is calculated by comparing with a standard curve generated using known quantities of the hormone.

[2] = molecular target: T2, CYP11B1 (Homo sapiens, UniProt P15538); test: in vitro CYP11B1 inhibition, steroid release from NCI-H295R cells; format: cell-based; settings: for inhibition at 0.1 µM: NCI-H295R, read-out: 11B1 % I @ 100 nM
T2 construct: Thus, the NCI-H295R cells have Cyp11 B1 (steroid 11 p-hydroxylase); host or cells: NCI-H295R
T2 sequence (P15538 25-503): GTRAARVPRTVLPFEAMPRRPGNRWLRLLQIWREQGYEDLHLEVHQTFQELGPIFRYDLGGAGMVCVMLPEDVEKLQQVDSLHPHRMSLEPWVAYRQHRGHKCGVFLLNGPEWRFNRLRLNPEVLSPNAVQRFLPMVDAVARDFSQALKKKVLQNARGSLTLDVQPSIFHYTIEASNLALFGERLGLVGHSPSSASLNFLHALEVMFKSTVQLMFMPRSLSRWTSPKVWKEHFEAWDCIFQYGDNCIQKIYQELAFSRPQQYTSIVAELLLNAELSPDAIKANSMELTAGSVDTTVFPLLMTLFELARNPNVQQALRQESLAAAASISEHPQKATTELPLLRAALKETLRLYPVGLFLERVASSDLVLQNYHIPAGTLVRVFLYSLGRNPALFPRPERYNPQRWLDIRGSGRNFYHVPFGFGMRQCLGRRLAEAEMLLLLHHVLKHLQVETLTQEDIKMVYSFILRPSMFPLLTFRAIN
Text: The in vitro inhibitory activities for CYP11B1 can be determined by the following assay.
The cell line NCI-H295R was originally isolated from an adrenocortical carcinoma and has been characterized in the literature through the stimulable secretion of steroid hormones and the presence of the enzymes essential for steroidogenesis. Thus, the NCI-H295R cells have Cyp11 B1 (steroid 11 p-hydroxylase). The cells show the physiological property of zonally undifferentiated human foetal adrenocortical cells which, however, have the capacity to produce the steroid hormones which are formed in the three, phenotypically distinguishable zones in the adult adrenal cortex.
The NCI-H295R cells (American Type Culture Collection, ATCC, Rockville, Md., USA) are grown in Dulbeoco's Modified Eagle'Ham F-12 Medium (DME/F12), which has been I supplemented with Ulroser SF Serum (Soprachem, Cergy-Saint-Christophe, France), insulin, transferrin, selenite (I-T-S, Becton Dickinson Biosciences, Franklin lakes, NJ, USA) and antibiotics in 75 cm^2 cell culture vessels at 37° C. and in a 95% air-5% carbon dioxide atmosphere. The cells are subsequently transferred for colony formation into a 24-well incubation vessel. They are cultivated there in DME/F12 medium, which is now supplemented with 0.1% bovine serum instead of Ultroser SF for 24 hours. The experiment is initiated by cultivating the cells in DME/F12 medium which is supplemented with 0.1% bovine serum albumin and test compound, in the presence or absence of cell stimulants, for 72 hours. The test substance is added in a concentration range from 0.2 nanomolar to […]. Cell stimulants which can be used are angiotensin 11 ([…] or 100 nanomolar), potassium ions (16 millimolar), forskolin (10 micromolar) or a combination of two stimulants.
The excretion of aldosterone, cortisol, corticosterone and estradiol/estrone into the culture medium can be detected and quantified by commercially available, specific monoclonal antibodies in radioimmunoassays in accordance with the manufacturer's instructions.
Inhibition of the release of certain steroids can be used as a measure of the respective enzyme inhibition by the added test compounds. The dose-dependent inhibition of enzymic activity by a compound is calculated by means of an inhibition plot which is characterized by an IC50.
The IC50 values for active test compounds are ascertained by a […] in order to construct inhibition plots without data weighting. The inhibition plot is calculated by fting a 4-parameter logistic function to the raw data points using the least squares method. The equation of the 4-parameter logistic function is calculated as follows: Y=(d−a)/((1+(x/c)b))+a I where: a=minimum data level b=gradient I c=ICED, d=maximum data level x=inhibitor concentration.

Row | Compound | IC50 [1] [nM] | 11B1 % I @ 100 nM [2] [%] | inhibition at 0.1 µM [2] [%]
1 | COC(=O)c1cncn1[C@H]1c2ccccc2[C@@H](O)CC1(C)C (relative stereo) [Compound 11, 3-(cis-4-Hydroxy-2,2-dimethyl-1,2,3,4-tetrahydro-naphthalen-r-1-yl)-3H-imidazole-4-carboxylic acid methyl ester] | 59 | 100 | 
2 | COC(=O)c1cncn1[C@H]1c2ccccc2[C@@H](O)CC1(C)C (relative stereo) [Compound 12, 3-(cis-4-Hydroxy-2,2-dimethyl-1,2,3,4-tetrahydro-naphthalen-r-1-yl)-3H-imidazole-4-carboxylic acid methyl ester] | 14 |  | 
3 | CC(C)OC(=O)c1cncn1C1CCCc2ccccc21 (single isomer, unassigned) [Compound 1, 3-(1,2,3,4-Tetrahydro-naphthalen-1-yl)-3H-imidazole-4-carboxylic acid isopropyl ester] | 44 |  | 99
4 | CC(C)OC(=O)c1cncn1C1CCCc2ccc(C(=O)N3CCCC3)cc21 (single isomer, unassigned) [Compound 3, 3-[7-(Pyrrolidine-1-carbonyl)-1,2,3,4-tetrahydro-naphthalen-1-yl]-3H-imidazole-4-carboxylic acid isopropyl ester] | 215 |  | 87
5 | CCc1cncn1C1CCC(C)(C)c2ccccc21 (single isomer, unassigned) [Compound 8, 1-(4,4-Dimethyl-1,2,3,4-tetrahydro-naphthalen-1-yl)-5-ethyl-1H-imidazole] | 35 |  | 100
6 | CCc1cncn1C1CCC(C)(C)c2ccccc21 (single isomer, unassigned) [Compound 9, 1-(4,4-Dimethyl-1,2,3,4-tetrahydro-naphthalen-1-yl)-5-ethyl-1H-imidazole] | 6 | 100 | 
7 | COC(=O)c1cncn1C1c2ccccc2C(=O)CC1(C)C (single isomer, unassigned) [Compound 10, 3-(2,2-Dimethyl-4-oxo-1,2,3,4-tetrahydro-naphthalen-1-yl)-3H-imidazole-4-carboxylic acid methyl ester] | 27 |  | 99
8 | CC(C)OC(=O)c1cncn1C1CCOc2ccccc21 (single isomer, unassigned) [Compound 15, 3-Chroman-4-yl-3H-imidazole-4-carboxylic acid isopropyl ester] | 103 |  | 65
9 | CC(C)OC(=O)c1cncn1C1CCOc2ccccc21 (single isomer, unassigned) [Compound 16, 3-Chroman-4-yl-3H-imidazole-4-carboxylic acid isopropyl ester] | 150 |  | 
10 | CCC(=O)Oc1cncn1C1CCCc2ccccc21 (stereo not drawn) [Compound 2, Propionic acid 3-(1,2,3,4-tetrahydro-naphthalen-1-yl)-3H-imidazol-4-yl ester] | 21 |  | 
11 | CC(=O)Nc1ccc2c(c1)CCCC2n1cncc1C(=O)OC(C)C (stereo not drawn) [Compound 4, 3-(6-Acetylamino-1,2,3,4-tetrahydro-naphthalen-1-yl)-3H-imidazole-4-carboxylic acid isopropyl ester] | 85 |  | 
12 | CC(C)OC(=O)c1cncn1C1CCCc2ccc(N(C)S(C)(=O)=O)cc21 (stereo not drawn) [Compound 5, 3-(7-Methanesulfonyl-methyl-amino-1,2,3,4-tetrahydro-naphthalen-1-yl)-3H-imidazole-4-carboxylic acid isopropyl ester] | 352 |  | 
13 | CC(C)OC(=O)c1cncn1C1CCCc2ccc(C#N)cc21 (stereo not drawn) [Compound 6, 3-(7-Cyano-1,2,3,4-tetrahydro-naphthalen-1-yl)-3H-imidazole-4-carboxylic acid isopropyl ester] | 197 |  | 
14 | CC(C)OC(=O)c1cncn1C1CCCc2cc(C3CC3)ccc21 (stereo not drawn) [Compound 7, 3-(6-Cyclopropyl-1,2,3,4-tetrahydro-naphthalen-1-yl)-3H-imidazole-4-carboxylic acid isopropyl ester] | 268 |  | 
15 | COC(=O)c1cncn1C1c2ccccc2C(NCc2ccccc2)CC1(C)C (stereo not drawn) [Compound 13, 3-(4-Benzylamino-2,2-dimethyl-1,2,3,4-tetrahydro-naphthalen-1yl)-3H-imidazole-4-carboxylic acid methyl ester] | 696 |  | 60
16 | CC1(C)CSc2ccccc2C1n1ccnc1 (stereo not drawn) [Compound 14, 1-(3,3-Dimethyl-thiochroman-4-yl)-1H-imidazole] | 125 |  | 92
17 | c1ccc(COc2cncn2C2CSCc3ccccc32)cc1 (stereo not drawn) [Compound 18, 5-Benzyloxy-1-isothiochroman-4-yl-1H-imidazole] | 152 |  | 
18 | CC1(C)Cc2ccccc2C1n1cncc1C(=O)NCc1ccccc1 (stereo not drawn) [Compound 19, 3-(2,2-Dimethyl-indan-1-yl)-3H-imidazole-4-carboxylic acid benzylamide] | 17 |  | 
19 | CC1(C)Cc2ccccc2C1n1cncc1C(=O)NCCO (stereo not drawn) [Compound 20, 3-(2,2-Dimethyl-indan-1-yl)-3H-imidazole-4-carboxylic acid (2-hydroxy-ethyl)-amide] | 6 |  | 
20 | Cc1noc(-c2cncn2C2c3ccccc3CC2(C)C)n1 (stereo not drawn) [Compound 21, 5-[3-(2,2-Dimethyl-indan-1-yl)-3H-imidazol-4-yl]-3-methyl-[1,2,4]oxadiazole] | 129 |  | 98
